Holding throughout (type): in vivo
The test system of experiment [1] is Green Peach Aphid (GPA) (Myzus persicae). In words: Bioassay on Green Peach Aphid (GPA), foliar spray on cabbage seedlings. To be noted: 72 h, 200 ppm foliar spray on cabbage seedlings, graded after three days, Abbott corrected % control, read-out: GPA @ 200 ppm, % Control (or Mortality) rating. As for the experimental part:
Certain molecules disclosed in this document were tested against GPA using procedures described in the following example. In the reporting of the results, the “Table 4: GPA, Scale and WF Rating Table” was used (See Table Section).
Cabbage seedlings grown in 3-inch pots, with 2-3 small (3-5 cm) true leaves, were used as test substrate. The seedlings were infested with 20-50 GPA (wingless adult and nymph stages) one day prior to chemical application. Four pots with individual seedlings were used for each treatment. Test compounds (2 mg) were dissolved in 2 mL of acetone/methanol (1:1) solvent, forming stock solutions of 1000 ppm test compound. The stock solutions were diluted 5× with 0.025% Tween 20 in H2O to obtain the solution at 200 ppm test compound. A hand-held aspirator-type sprayer was used for spraying a solution to both sides of […] leaves until runoff. Reference plants (solvent check) were sprayed with the diluent only containing 20% by volume of acetone/methanol (1:1) solvent. Treated plants were held in a holding room for three days at approximately 25° C. and ambient relative humidity (RH) prior to grading. Evaluation was conducted by counting the number of live aphids per plant under a microscope. Percent Control was measured by using Abbott's correction formula (W. S. Abbott, “A Method of Computing the Effectiveness of an Insecticide” J. Econ. Entomol. 18 (1925), pp. 265-267) as follows.
Corrected % Control=100*(X−Y)/X • where • X=No. of live aphids on solvent check plants and • Y=No. of live aphids on treated plants
(§1) The results are indicated in the table entitled “Table 5: BAW, CEW, GPA, Scale and WF Results” (See Table Section).

Experiment [2] has as its system San Jose Scale (Quadraspidiotus perniciosus). Kind of experiment: Bioassay on San Jose Scale, foliar spray on cotton plants. To be noted: Diaspidiotus perniciosus, 216 h; 200 ppm foliar spray on cotton plants, live nymphs counted 9 days after infestation, Abbott corrected % control; read-out: Scale @ 200 ppm, % Control (or Mortality) rating. Here is the method: Certain molecules disclosed in this document were tested against Scale using procedures described in the following example. In the reporting of the results, the “Table 4: GPA, Scale and WF Rating Table” was used (See Table Section).
Cotton plants (Gossypium hirsutum) grown in 3-inch pots, with 1 small (4-5 cm) true leaves, were used as test substrate. The plants were infested with 200-400 scale crawlers 1-2 hours after chemical application. Four pots with individual plants were used for each treatment. Test compounds (2 mg) were dissolved in 1 mL of acetone solvent, forming stock solutions of 2000 ppm test compound. The stock solutions were diluted 10× with 0.025% Tween 20 in H2O (diluents) to obtain the solution at 200 ppm test compound. A hand-held aspirator-type sprayer was used for spraying a solution to both sides of cotton leaves until runoff. Reference plants (solvent check) were sprayed with the diluent only containing 10% by volume of acetone solvent. Treated plants were held in a holding room for three days at approximately 25° C. and ambient relative humidity (RH) prior to grading. Evaluation was conducted by counting the number of live 2-3 nymphal stage per plant under a microscope 9 days after infestation. Percent Control was measured by using Abbott's correction formula (W. S. Abbott, “A Method of Computing the Effectiveness of an Insecticide” J. Econ. Entomol. 18 (1925), pp. 265-267) as follows.
Corrected % Control=100*(X−Y)/X • where • X=No. of live nymphs on solvent check plants and • Y=No. of live nymphs on treated plants
as §1

The test system of experiment [3] is Beet Armyworm (BAW) (Spodoptera exigua). In words: Bioassay on Beet Armyworm (BAW), 128-well diet tray assay. To be noted: 120 h. As for the experimental part:
Certain molecules disclosed in this document were tested against BAW and CEW using procedures described in the following examples. In the reporting of the results, the “Table 3: BAW & CEW Rating Table” was used (See Table Section).
Bioassays on BAW (Spodoptera exigua)
Bioassays on BAW were conducted using a 128-well diet tray assay. […] Trays were covered with a clear self-adhesive cover, and held at 25° C., 14:10 light-dark for five days. Percent mortality was recorded for the larvae in each well; activity in the eight wells was then averaged. The results are indicated in the table entitled “Table 5: BAW, CEW, GPA, Scale and WF Results” (See Table Section).

The test system of experiment [4] is Sweet Potato Whitefly (WF) (Bemisia tabaci). In words: Bioassay on Sweet Potato Whitefly (WF), foliar spray on cotton plants. To be noted: 216 h, 200 ppm foliar spray on cotton plants, graded after 9 days, Abbott corrected % control, read-out: WF @ 200 ppm, % Control (or Mortality) rating. Here is the method: Certain molecules disclosed in this document were tested against WF using procedures described in the following example. In the reporting of the results, the “Table 4: GPA, Scale and WF Rating Table” was used (See Table Section).
Cotton plants (Gossypium hirsutum) grown in 3-inch pots, with 1 small (4-5 cm) true leaves, were used as test substrate. The plants were infested with 200-400 whitefly eggs 4-5 days prior to chemical application. Four pots with individual plants were used for each treatment. Test compounds (2 mg) were dissolved in 1 mL of acetone solvent, forming stock solutions of 2000 ppm test compound. The stock solutions were diluted 10× with 0.025% Tween 20 in H2O (diluents) to obtain the solution at 200 ppm test compound. A hand-held aspirator-type sprayer was used for spraying a solution to both sides of cotton leaves until runoff. Reference plants (solvent check) were sprayed with the diluent only containing 10% by volume of acetone solvent. Treated plants were held in a holding room for 9 days at approximately 25° C. and ambient relative humidity (RH) prior to grading. Evaluation was conducted by counting the number of live 3-4 nymphal stage per plant under a microscope. Percent Control was measured by using Abbott's correction formula (W. S. Abbott, “A Method of Computing the Effectiveness of an Insecticide” J. Econ. Entomol. 18 (1925), pp. 265-267) as follows.
Corrected % Control=100*(X−Y)/X • where • X=No. of live nymphs on solvent check plants and • Y=No. of live nymphs on treated plants.
as §1

Where [5] appears, read: second instar larvae on treated artificial diet, five days, 25° C., read-out: BAW, % Control (or Mortality) rating.

Where two headings read alike, the source gives them in different places.

For orientation: mortality means the percentage killed.

Consider `Cc1nn(-c2cccnc2)cc1-c1ccnc(C(F)(F)F)n1` [Compound 5], for which the mortality at 200 ppm in experiment [1] and in experiment [2] was 80 to 100% each time. Besides, in experiment [3] (setting [5]), the mortality was 50 to 100%.

Regarding `COc1cccc(-c2cn(-c3cccnc3)nc2C)n1` [Compound 19], the results for the mortality at 200 ppm in experiment [1], in experiment [2] and in experiment [4] were 80 to 100%, 80 to 100% and 0 to 80%, respectively. Further, the mortality in experiment [3] (setting [5]) is 50 to 100%.

As for `Cc1cc(-c2cn(-c3cccnc3)nc2C)ccn1` [Compound 30], the figures for the mortality at 200 ppm in experiment [1], in experiment [2] and in experiment [4] were 80 to 100%, 0 to 80% and 0 to 80%, respectively. Also, the mortality in experiment [3] (setting [5]) lay in the range of 50 to 100%.

Consider `COc1cc(-c2cn(-c3cccnc3)nc2C)nc(OC)n1` [Compound 12], for which the mortality at 200 ppm in experiment [1] lay within 80 to 100%; in experiment [2], 0 to 80%. Moreover, the mortality in experiment [3] (setting [5]) was 50 to 100%.

For `Fc1cncc(-n2cc(-c3cccc(C(F)(F)F)n3)c(Cl)n2)c1` [Compound 7], the mortality at 200 ppm in experiment [1] and in experiment [2] was 80 to 100% throughout. The mortality in experiment [3] (setting [5]) was 50 to 100%.

In the case of `COc1cc(-c2cn(-c3cccnc3)nc2C)ncn1` [Compound 11], the results for the mortality at 200 ppm in experiment [1] and in experiment [2] were 80 to 100% and 0 to 80%, respectively. Besides, the mortality in experiment [3] (200 ppm, second instar larvae on treated artificial diet, five days, 25° C., read-out: BAW @ 200 ppm, % Control (or Mortality) rating) is 50 to 100%.

In the case of `COc1ccc(-c2cn(-c3cccnc3)nc2C)cn1` [Compound 25], the mortality at 200 ppm was 80 to 100% in experiment [1], 80 to 100% in experiment [2] and 0 to 80% in experiment [4]. The mortality in experiment [3] (setting [5]) lay within 50 to 100%.

As for `Cc1nn(-c2cccnc2)cc1-c1cc(C(F)(F)F)ncn1` [Compound 10], the mortality at 200 ppm in experiment [1] and in experiment [2] was 80 to 100% in each case. Also, in experiment [3] (setting [5]), the mortality is 50 to 100%.

For the compound `Cc1ccc(-c2cn(-c3cccnc3)nc2C)cn1` [Compound 26], the mortality at 200 ppm in experiment [1], in experiment [2] and in experiment [4] was 80 to 100% in each case. For the same compound, in experiment [3] (setting [5]), the mortality fell in the range of 50 to 100%.

Turning to `FC(F)(F)c1ccc(-c2cnn(-c3cccnc3)c2)cn1` [Compound 2, 5-(1-(pyridin-3-yl)-1H-pyrazol-4-yl)-2-(trifluoromethyl)pyridine], the figures for the mortality at 200 ppm in experiment [1] and in experiment [2] were 80 to 100% and 0%, respectively. For the same compound, the mortality in experiment [3] (setting [5]) is 50 to 100%.

Consider `Cc1nn(-c2cncc(F)c2)cc1-c1cccc(C(F)(F)F)n1` [Compound 3, 2-(1-(5-fluoropyridin-3-yl)-3-methyl-1H-pyrazol-4-yl)-6-(trifluoromethyl)pyridine], for which the mortality at 200 ppm in experiment [1] and in experiment [2] was 80 to 100% each time. In addition, in experiment [3] (setting [5]), the mortality was 50 to 100%.

For `FC(F)(F)c1cccc(-c2cnn(-c3cccnc3)c2)n1` [Compound 1, 2-(1-(pyridin-3-yl)-1H-pyrazol-4-yl)-6-(trifluoromethyl)pyridine], the mortality at 200 ppm in experiment [1] was 80 to 100%; in experiment [2] it was 80 to 100%; in experiment [4], 0 to 80%. Besides, in experiment [3] (read-out: BAW, % Control (or Mortality) rating), the mortality fell in the range of 50 to 100%.

For the compound `CSc1cccc(-c2cn(-c3cccnc3)nc2C)c1` [Compound 17, 3-(3-methyl-4-(3-(methylthio)phenyl)-1H-pyrazol-1-yl)pyridine], the mortality at 200 ppm in experiment [1] was 80 to 100%; in experiment [2], 0 to 80%; in experiment [4], 0%. In experiment [3] (setting [5]), the mortality lay in the range of 50 to 100%.

Take `Cc1nn(-c2cccnc2)cc1-c1cc(C(F)(F)F)ccn1` [Compound 22]: the mortality at 200 ppm in experiment [1], in experiment [2] and in experiment [4] was 80 to 100% throughout. Also, the mortality in experiment [3] (setting [5]) lay in the range of 50 to 100%.

As to `Cc1cncc(-c2cn(-c3cccnc3)nc2C)c1` [Compound 27], the results for the mortality at 200 ppm in experiment [1], in experiment [2] and in experiment [4] were 80 to 100%, 0 to 80% and 80 to 100%, respectively. For the same compound, the mortality in experiment [3] (setting [5]) was 50 to 100%.

As to `COc1ccnc(-c2cn(-c3cccnc3)nc2C)n1` [Compound 9], the mortality at 200 ppm in experiment [1] and in experiment [2] was 80 to 100% in each case. For the same compound, the mortality in experiment [3] (setting [5]) is 50 to 100%.

On to `Cc1nn(-c2cccnc2)cc1-c1cccc(C(F)(F)F)n1` [Compound 4], for which the mortality at 200 ppm in experiment [1] and in experiment [2] was 80 to 100% each time. Further, the mortality in experiment [3] (setting [5]) was 50 to 100%.

`CSc1nc(-c2cn(-c3cccnc3)nc2C)cc(C(F)(F)F)n1` [Compound 13]: the mortality at 200 ppm in experiment [1] and in experiment [2] was 0 to 80% in each case. Moreover, the mortality in experiment [3] (setting [5]) was 50 to 100%.

Turning to `Cc1nn(-c2cccnc2)cc1-c1cccnc1` [Compound 23], the mortality at 200 ppm in experiment [1] lay in the range of 80 to 100%; in experiment [2], 80 to 100%; in experiment [4] it was 0 to 80%. For the same compound, the mortality in experiment [3] (setting [5]) is 50 to 100%.

In the case of `Cc1nn(-c2cccnc2)cc1-c1ccc(C(F)(F)F)cn1` [Compound 21], the mortality at 200 ppm in experiment [1], in experiment [2] and in experiment [4] was 80 to 100% each time. Besides, the mortality in experiment [3] (setting [5]) was in the range of 50 to 100%.

Turning to `Cc1nn(-c2cccnc2)cc1-c1ccc(C(F)(F)F)nc1` [Compound 29], the mortality at 200 ppm in experiment [1], in experiment [2] and in experiment [4] was 80 to 100% throughout. In addition, the mortality in experiment [3] (setting [5]) lay within 50 to 100%.

Consider `Cc1nccc(-c2cn(-c3cccnc3)nc2C)n1` [Compound 8], for which the mortality at 200 ppm in experiment [1] and in experiment [2] was 80 to 100% each time. In experiment [3] (setting [5]), the mortality was 50 to 100%.

On to `Cc1ncccc1-c1cn(-c2cccnc2)nc1C` [Compound 28], for which the mortality at 200 ppm lay within 80 to 100% in experiment [1], 80 to 100% in experiment [2] and 0 to 80% in experiment [4]. Besides, the mortality in experiment [3] (setting [5]) lay within 50 to 100%.

Values taken from US20120220453A1, “PESTICIDAL COMPOSTIONS AND PROCESSES RELATED THERETO” (priority 2011, published 2012).
